“And” between values parts separate entries of the source, which are not always exact repeats. Identical values can stand only once. Toxic doses and inconclusive results are not listed. Cut-off read from the data, not from the text of the source: active = T/C of 150% or more; inactive = T/C below 125%.
System: L1210 leukemia ip in BDF1 mice, survival T/C
Assay: NCI In Vivo Anticancer Drug Screen. Data for tumor model L1210 Leukemia (intraperitoneal) in B6D2F1 (BDF1) mice
Details: endpoint: mean survival time, higher = longer survival
Method in brief: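 Each compound was tested against a transplantable tumor grown in mice. The endpoint was survival, with treated animals benchmarked against vehicle controls as a simple ratio.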

[1] = dose: 50.0 mg/kg/injection, schedule: Q01DX009 (ip), vehicle: acetone
[2] = dose: 100.0 mg/kg/injection, schedule: Q01DX009 (ip), vehicle: acetone
[3] = dose: 100.0 mg/kg/injection, schedule: Q04DX003 (ip), vehicle: saline
[4] = dose: 25.0 mg/kg/injection, schedule: Q04DX002 (ip), vehicle: Klucel (hydroxypropylcellulose) (HPC)
[5] = dose: 200.0 mg/kg/injection, schedule: Q04DX003 (ip), vehicle: saline
[6] = dose: 400.0 mg/kg/injection, schedule: Q04DX003 (ip), vehicle: saline
[7] = dose: 100.0 mg/kg/injection, schedule: Q01DX001 (ip), vehicle: carboxymethylcellulose (CMC)
[8] = dose: 200.0 mg/kg/injection, schedule: Q01DX001 (ip), vehicle: carboxymethylcellulose (CMC)
[9] = dose: 400.0 mg/kg/injection, schedule: Q01DX001 (ip), vehicle: carboxymethylcellulose (CMC)
[10] = dose: 100.0 mg/kg/injection, schedule: Q04DX003 (ip), vehicle: saline with Tween-80
[11] = dose: 200.0 mg/kg/injection, schedule: Q04DX003 (ip), vehicle: saline with Tween-80
[12] = dose: 100.0 mg/kg/injection, schedule: Q04DX002 (ip), vehicle: saline with Tween-80
[13] = dose: 200.0 mg/kg/injection, schedule: Q04DX002 (ip), vehicle: saline with Tween-80
[14] = dose: 50.0 mg/kg/injection, schedule: Q01DX001 (ip), vehicle: saline
[15] = dose: 100.0 mg/kg/injection, schedule: Q01DX001 (ip), vehicle: saline
[16] = dose: 200.0 mg/kg/injection, schedule: Q01DX001 (ip), vehicle: saline
[17] = dose: 400.0 mg/kg/injection, schedule: Q01DX001 (ip), vehicle: saline
[18] = dose: 100.0 mg/kg/injection, schedule: Q01DX009 (ip), vehicle: Klucel (hydroxypropylcellulose) (HPC)
[19] = dose: 200.0 mg/kg/injection, schedule: Q01DX009 (ip), vehicle: Klucel (hydroxypropylcellulose) (HPC)
[20] = dose: 400.0 mg/kg/injection, schedule: Q01DX009 (ip), vehicle: Klucel (hydroxypropylcellulose) (HPC)
[21] = dose: 100.0 mg/kg/injection, schedule: Q01DX009 (ip), vehicle: saline
[22] = dose: 400.0 mg/kg/injection, schedule: Q04DX003 (ip), vehicle: saline with Tween-80
[23] = dose: 200.0 mg/kg/injection, schedule: Q01DX009 (ip), vehicle: saline

Measured: T/C

CSc1nn[nH]n1
inactive: dose: 25.0 mg/kg/injection, schedule: Q01DX009 (ip), vehicle: acetone 93 % of control | [1] 96 % of control | dose: 50.0 mg/kg/injection, schedule: Q04DX003 (ip), vehicle: saline 92 % of control | dose: 100.0 mg/kg/injection, schedule: Q01DX001 (ip), vehicle: acetone 98 % of control | [2] 91 % of control | [3] 97 % of control | dose: 200.0 mg/kg/injection, schedule: Q01DX001 (ip), vehicle: acetone 93 % of control

O=C(O)c1ccccc1[N+](=O)[O-].[Ag]
inactive: dose: 12.5 mg/kg/injection, schedule: Q04DX003 (ip), vehicle: saline with Tween-80 90 % of control | dose: 25.0 mg/kg/injection, schedule: Q04DX003 (ip), vehicle: saline with Tween-80 107 % of control | dose: 50.0 mg/kg/injection, schedule: Q04DX003 (ip), vehicle: saline with Tween-80 91 % of control

O=[N+]([O-])c1ccc(SC2=NCCCN2)c([N+](=O)[O-])c1
inactive: dose: 12.5 mg/kg/injection, schedule: Q04DX002 (ip), vehicle: Klucel (hydroxypropylcellulose) (HPC) 106 % of control | [4] 95 % of control

Cc1nc(N)[nH]c(=O)c1CCCN=Cc1cccc([N+](=O)[O-])c1
inactive: dose: 12.5 mg/kg/injection, schedule: Q01DX001 (ip), vehicle: Klucel (hydroxypropylcellulose) (HPC) 110 % of control | dose: 25.0 mg/kg/injection, schedule: Q01DX001 (ip), vehicle: Klucel (hydroxypropylcellulose) (HPC) 103 % of control | dose: 50.0 mg/kg/injection, schedule: Q01DX001 (ip), vehicle: Klucel (hydroxypropylcellulose) (HPC) 97 % of control

O=[N+]([O-])c1cc(S(=O)(=O)N2CCCC2)ccc1N1CCCC1
inactive: [3] 100 % of control | [5] 96 % of control | [6] 105 % of control

O=C1CC2=CCCCc3cccc1c32
inactive: [7] 93 % of control | [8] 93 % of control | [9] 93 % of control

C[CH2][Pb]([CH2]C)([CH2]C)[N](C#N)C(=N)N
inactive: [4] 97 % of control | dose: 50.0 mg/kg/injection, schedule: Q04DX002 (ip), vehicle: Klucel (hydroxypropylcellulose) (HPC) 101 % of control

CC(C)(C)C=O
inactive: [3] 102 % of control | [5] 96 % of control | [6] 100 % of control

COc1ccc(Cc2c3cc(OC)c(OC)cc3cc[n+]2C)cc1OC
inactive: dose: 12.5 mg/kg/injection, schedule: Q01DX009 (ip), vehicle: saline with Tween-80 103 % of control | dose: 25.0 mg/kg/injection, schedule: Q01DX009 (ip), vehicle: saline with Tween-80 100 % of control | dose: 50.0 mg/kg/injection, schedule: Q01DX009 (ip), vehicle: saline with Tween-80 105 % of control and 106 % of control | [10] 98 % of control | [11] 95 % of control

CC(=O)Nc1ccc(Oc2ccc(NC(C)=O)cc2)cc1
inactive: dose: 25.0 mg/kg/injection, schedule: Q04DX002 (ip), vehicle: saline 90 % of control | dose: 50.0 mg/kg/injection, schedule: Q04DX002 (ip), vehicle: saline 97 % of control | dose: 100.0 mg/kg/injection, schedule: Q04DX002 (ip), vehicle: saline 117 % of control

CCC(=O)OC1CCC2C3CCC4=CC(=O)CCC4(C)C3CCC12C (stereo not given)
inactive: [7] 107 % of control | [8] 96 % of control | [9] 96 % of control

COc1ccc(Cl)cc1NC(=O)/C=C/c1ccccc1
inactive: dose: 100.0 mg/kg/injection, schedule: Q01DX001 (ip), vehicle: saline with Tween-80 95 % of control | dose: 100.0 mg/kg/injection, schedule: Q01DX009 (ip), vehicle: saline with Tween-80 89 % of control | [12] 98 % of control and 90 % of control | dose: 200.0 mg/kg/injection, schedule: Q01DX001 (ip), vehicle: saline with Tween-80 92 % of control | dose: 200.0 mg/kg/injection, schedule: Q01DX009 (ip), vehicle: saline with Tween-80 95 % of control and 89 % of control | [13] 96 % of control and 91 % of control | dose: 400.0 mg/kg/injection, schedule: Q01DX009 (ip), vehicle: saline with Tween-80 92 % of control | dose: 400.0 mg/kg/injection, schedule: Q04DX002 (ip), vehicle: saline with Tween-80 94 % of control and 86 % of control

CC(=O)O/N=C(/CCC(=O)O)c1ccccc1
inactive: dose: 50.0 mg/kg/injection, schedule: Q04DX002 (ip), vehicle: saline with Tween-80 97 % of control | [12] 108 % of control | [13] 94 % of control

CC(=Nc1ccccc1)NO
inactive: [1] 94 % of control | [2] 97 % of control | [3] 96 % of control | dose: 200.0 mg/kg/injection, schedule: Q01DX009 (ip), vehicle: acetone 100 % of control | [5] 108 % of control | [6] 96 % of control

O=c1[nH]c(=S)[nH]c(-c2ccccc2)c1Cc1ccccc1
inactive: [14] 100 % of control | [15] 96 % of control | [16] 94 % of control | [17] 94 % of control

COc1ccc(CC(C(=O)O)C(Cc2ccc(OC)c(OC)c2)C(=O)O)cc1OC (stereo not given)
inactive: dose: 50.0 mg/kg/injection, schedule: Q01DX009 (ip), vehicle: Klucel (hydroxypropylcellulose) (HPC) 94 % of control | [18] 104 % of control | [3] 118 % of control | [19] 95 % of control | [5] 114 % of control | [20] 91 % of control | [6] 98 % of control

CC1CCCC/C1=N/NC(N)=O (stereo not given)
inactive: [18] 97 % of control | [3] 97 % of control | [5] 88 % of control | [6] 95 % of control

CCC(C)C(CCN(CC)CC)(CNC(=O)CN(CC)CC)c1cccc2ccccc12 (stereo not given)
inactive: [21] 97 % of control

O=[N+]([O-])c1cccc(N(CCO)CCO)c1
inactive: [14] 96 % of control | [15] 106 % of control | [16] 93 % of control | [17] 100 % of control

CCOC(=O)C1=NN(c2ccccc2)C(=O)C1
inactive: [18] 105 % of control | dose: 100.0 mg/kg/injection, schedule: Q04DX003 (ip), vehicle: Klucel (hydroxypropylcellulose) (HPC) 98 % of control | [10] 94 % of control | [19] 103 % of control | dose: 200.0 mg/kg/injection, schedule: Q04DX003 (ip), vehicle: Klucel (hydroxypropylcellulose) (HPC) 96 % of control | [11] 100 % of control | [20] 92 % of control | dose: 400.0 mg/kg/injection, schedule: Q04DX003 (ip), vehicle: Klucel (hydroxypropylcellulose) (HPC) 102 % of control | [22] 93 % of control

CCCCCCCCCCCCCCCc1cccc2ccccc12
inactive: [10] 92 % of control | [11] 92 % of control | [22] 88 % of control

CN1CCC2CCCCC2C1Cc1ccc(Oc2ccc(CC3C4CCCCC4CCN3C)cc2)cc1 (stereo not given)
inactive: dose: 0.78 mg/kg/injection, schedule: Q04DX002 (ip), vehicle: Klucel (hydroxypropylcellulose) (HPC) 91 % of control | dose: 1.56 mg/kg/injection, schedule: Q04DX002 (ip), vehicle: Klucel (hydroxypropylcellulose) (HPC) 88 % of control | dose: 3.12 mg/kg/injection, schedule: Q04DX002 (ip), vehicle: Klucel (hydroxypropylcellulose) (HPC) 91 % of control

CC[N+]1(CC)CCOC(=O)C1
inactive: [21] 95 % of control | [3] 109 % of control | [23] 93 % of control | [5] 101 % of control | dose: 400.0 mg/kg/injection, schedule: Q01DX009 (ip), vehicle: saline 94 % of control | [6] 101 % of control

NN1N=Nc2cccc3cccc1c23
inactive: dose: 50.0 mg/kg/injection, schedule: Q01DX009 (ip), vehicle: saline 96 % of control | [21] 107 % of control | [3] 92 % of control | [23] 88 % of control | [5] 91 % of control

Reference: PubChem BioAssay AID248 (DTP/NCI, 2004)
